Reference: US10757939B2, “Insecticidal and nematocidal active ingredient combinations” (priority 2014, dated 2020)
Like-named read-outs stand apart in the source and are kept apart here.

Tests used:
[1] = tested on: Myzus persicae; test: Myzus persicae - drench test (cabbage plants); type: in vivo; settings: soil
Protocol: (§1) Formula for the Efficacy of the Combination of Two Compounds
(§2) Schneider-Orelli: Formula to Calculate Corrected Efficacy % in Pesticide Trials
Myzus persicae—Drench Test
(§3) • Solvent: 7 parts by weight of dimethylformamide • Emulsifier: 2 parts by weight of alkylaryl poly glycol ether
(§4) In the calculation of the concentration the soil volume has to be included. […] Further test concentrations are prepared by dilution with water.
After the specified period of time mortality in % is determined. 100% means all the aphids have been killed and 0% means none of the aphids have been killed. The mortality values determined thus are recalculated using the Colby-formula (see sheet 1).

[2] = tested on: Meloidogyne incognita; test: Meloidogyne incognita - test (gall formation, sand, salad seedlings); type: in vivo
Protocol: as §1, §2
Meloidogyne incognita—Test […]
Vessels are filled with sand, a solution of the active ingredient, a suspension containing eggs and larvae of the southern root-knot nematode (Meloidogyne incognita) and salad seeds. The salad seeds germinate and the seedlings grow. Galls develop in the roots.
After the specified period the nematicidal activity is determined on the basis of the percentage of gall formation.

[3] = tested on: Spodoptera frugiperda; test: Spodoptera frugiperda - drench test (corn plants); type: in vivo
Protocol: as §1, §2
Spodoptera frugiperda—Drench Test
as §3, §4
After the specified period of time mortality in % is determined and corrected according to Schneider-Orelli's formula (see sheet 1). 100% means all the caterpillars have been killed and 0% means none of the caterpillars have been killed. The mortality values determined thus are recalculated using the Colby-formula (see sheet 1).

[4] = tested on: Meloidogyne incognita; test: Meloidogyne incognita - drench test (soil, salad seedlings); type: in vivo
Protocol: as §1, §2
Meloidogyne incognita—Drench Test
• Solvent: 7 parts by weight of dimethylformamide • Emulsifier: 2.5 parts by weight of alkylarylpolyglycolether
as §4
The compound solution is poured into pots filled with soil (loamy sand). A suspension containing eggs and larvae of the southern root-knot nematode (Meloidogyne incognita) is added, salad seeds are spread on the soil surface and covered with quartz sand. The salad seeds germinate and the seedlings grow. Galls develop on the roots.
After the specified period of time the nematicidal activity is determined on the basis of the percentage of gall formation. […] The activity determined thus is recalculated using the Colby-formula (see sheet 1).

[5] = tested on: Tetranychus urticae; test: Tetranychus urticae - drench test; OP-resistant (bean plants); type: in vivo; settings: for mortality at 25 ppm: Tetranychus urticae, soil, 360 h, read-out: Efficacy in % after 15 d (mortality)
Protocol: as §1, §2
Tetranychus urticae—Drench Test; OP-Resistant
as §3, §4
After the specified period of time mortality in % is determined. 100% means all the spider mites have been killed and 0% means none of the spider mites have been killed. The mortality values determined thus are recalculated using the Colby-formula (see sheet 1).

[6] = logP by HPLC-MS
[7] = 168 h, 7 d, read-out: Efficacy in % after 7d
[8] = 240 h, 10 d, read-out: Efficacy in % after 10d

CNC(=O)c1cc(C#N)cc(C)c1NC(=O)c1cc(Cn2nnc(C(F)(F)F)n2)nn1-c1ncccc1Cl [1-(3-chloropyridin-2-yl)-N-[4-cyano-2-methyl-6-(methylcarbamoyl)phenyl]-3-{[5-(trifluoromethyl)-2H-tetrazol-2-yl]methyl}-1H-pyrazole-5-carboxamide]
pest or weed control at 0.25 ppm [1, 7]: 0%
pest or weed control at 0.25 ppm [1, 8]: 0%

C/C=C(\C)C(=O)O[C@H]1C[C@@H](OC(C)=O)[C@@]2(C(=O)OC)CO[C@H]3[C@@H](O)[C@@](C)([C@]45O[C@@]4(C)[C@H]4C[C@@H]5O[C@@H]5OC=C[C@@]54O)[C@H]4[C@]1(CO[C@]4(O)C(=O)OC)[C@@H]32 [Azadirachtin]
Efficacy in % after 14d ([2]; 16 ppm): 0%

CCOP(=O)(SC(C)CC)SC(C)CC (stereo not drawn) [Cadusafos]
Efficacy in % after 14d ([2]; 50 ppm): 0%
Efficacy in % after 14d ([2]; 100 ppm): 0%

CNC(=O)Oc1cccc2c1OC(C)(C)C2 [Carbofuran]
Efficacy in % after 14d ([2]; 50 ppm): 0%
Efficacy in % after 14d ([2]; 100 ppm): 0%

CNC(=O)c1cc(Cl)cc(C)c1NC(=O)c1cc(Br)nn1-c1ncccc1Cl [Chlorantraniliprole]
pest or weed control at 0.8 ppm ([1]; 168 h, 0.8 ppm, 7 d, read-out: Efficacy in % after 7d): 10%
pest or weed control at 1.6 ppm ([1]; 168 h, 1.6 ppm, 7 d, read-out: Efficacy in % after 7d): 20%
pest or weed control at 0.4 ppm ([1]; 240 h, 0.4 ppm, 10 d, read-out: Efficacy in % after 10d): 0%
Efficacy in % after 14d ([3]; 0.04 ppm): 66.5%

CN/C(=N\[N+](=O)[O-])NCc1cnc(Cl)s1 [Clothianidin, reference compound]
Efficacy in % after 6d ([3]; 2 ppm): 0%
Efficacy in % after 4d ([3]; 10 ppm): 0%
Efficacy in % after 6d ([3]; 10 ppm): 37%

O=C(Nc1ccn(-c2c(F)cccc2F)n1)c1ccccc1C(F)(F)F [Compound (Ia), N-[1-(2,6-difluorophenyl)-1H-pyrazol-3-yl]-2-(trifluoromethyl)benzamide]
Efficacy in % after 21d ([4]; 0.75 ppm): 0%
pest or weed control at 2 ppm [1, 7]: 0%
pest or weed control at 20 ppm [1, 7]: 0%
pest or weed control at 2 ppm [1, 8]: 0%
pest or weed control at 20 ppm [1, 8]: 0%
Efficacy in % after 14d ([2]; 1 ppm): 0%
Efficacy in % after 14d ([2]; 5 ppm): 0%
Efficacy in % after 14d ([2]; 10 ppm): 0%
mortality at 25 ppm [5]: 10%
Efficacy in % after 14d ([3]; 0.2 ppm): 0%
Efficacy in % after 14d ([3]; 40 ppm): 0%
Efficacy in % after 4d ([3]; 200 ppm): 0%
Efficacy in % after 6d ([3]; 200 ppm): 0%
logP [6]: 2.68

O=C(Nc1ccn(-c2ncc(F)cc2F)n1)c1ccccc1C(F)(F)F [Compound (Ib), N-[1-(3,5-difluoropyridin-2-yl)-1H-pyrazol-3-yl]-2-(trifluoromethyl)benzamide]
Efficacy in % after 21d ([4]; 0.75 ppm): 55%
pest or weed control at 2 ppm [1, 7]: 0%
pest or weed control at 20 ppm [1, 7]: 0%
pest or weed control at 2 ppm [1, 8]: 0%
mortality at 25 ppm ([5]; drench, bean plants, 25 ppm, after 15 d, single compound): 0%
Efficacy in % after 14d ([3]; 40 ppm): 0%
Efficacy in % after 4d ([3]; 200 ppm): 0%
Efficacy in % after 6d ([3]; 200 ppm): 0%

O=C(Nc1cnn(-c2c(F)cccc2F)n1)c1ccccc1C(F)(F)F [Compound (Ic), N-[2-(2,6-Difluorophenyl)-2H-1,2,3-triazol-4-yl]-2-(trifluoromethyl)benzamide]
pest or weed control at 2 ppm [1, 7]: 0%
pest or weed control at 20 ppm [1, 7]: 0%
pest or weed control at 2 ppm [1, 8]: 0%
Efficacy in % after 14d ([2]; 0.25 ppm): 0%
Efficacy in % after 14d ([2]; 1 ppm): 0%
Efficacy in % after 14d ([2]; 5 ppm): 0%
Efficacy in % after 14d ([2]; 10 ppm): 70%
mortality at 25 ppm [5]: 0%
Efficacy in % after 14d ([3]; 0.2 ppm): 0%
Efficacy in % after 14d ([3]; 0.8 ppm): 0%
Efficacy in % after 4d ([3]; 200 ppm): 0%
Efficacy in % after 6d ([3]; 200 ppm): 0%
logP [6]: 2.80

CNC(=O)c1cc(C#N)cc(C)c1NC(=O)c1cc(Br)nn1-c1ncccc1Cl [Cyantraniliprole]
pest or weed control at 0.1 ppm [1, 7]: 20%
pest or weed control at 0.1 ppm [1, 8]: 10%
Efficacy in % after 14d ([3]; 0.08 ppm): 16.5%

N#Cc1nn(-c2c(Cl)cc(C(F)(F)F)cc2Cl)c(N)c1[S+]([O-])C(F)(F)F (stereo not drawn) [Fipronil]
pest or weed control at 5 ppm [1, 7]: 15%
pest or weed control at 10 ppm [1, 7]: 40%
pest or weed control at 5 ppm [1, 8]: 50%
pest or weed control at 10 ppm [1, 8]: 55%

Cc1cc(C(F)(C(F)(F)F)C(F)(F)F)ccc1NC(=O)c1cccc(I)c1C(=O)NC(C)(C)CS(C)(=O)=O [Flubendiamide, reference compound]
Efficacy in % after 14d ([3]; 4 ppm): 33%
Efficacy in % after 14d ([3]; 8 ppm): 66%

O=C(NCCc1ncc(C(F)(F)F)cc1Cl)c1ccccc1C(F)(F)F [Fluopyram, reference compound]
Efficacy in % after 21d ([4]; 0.15 ppm): 0%

O=[N+]([O-])NC1=NCCN1Cc1ccc(Cl)nc1 [Imidacloprid, reference compound]
Efficacy in % after 6d ([3]; 10 ppm): 0%
Efficacy in % after 4d ([3]; 50 ppm): 22%
Efficacy in % after 6d ([3]; 50 ppm): 12%

CC(C)NC(=O)N1CC(=O)N(c2cc(Cl)cc(Cl)c2)C1=O [Iprodione]
Efficacy in % after 14d ([2]; 50 ppm): 0%
Efficacy in % after 14d ([2]; 100 ppm): 0%

O=C(N=c1ccccn1Cc1ccc(Cl)nc1)C(F)(F)F [N-[1-[(6-chloro-3-pyridinyl)methyl]-2(1H)-pyridinylidene]-2,2,2-trifluoro-acetamide]
pest or weed control at 0.1 ppm [1, 7]: 30%
pest or weed control at 0.1 ppm [1, 8]: 20%

CS/C(C)=N\OC(=O)N(C)SN(C)C(=O)O/N=C(\C)SC [Thiodicarb]
Efficacy in % after 14d ([2]; 50 ppm): 0%

CC(=O)NC1=NN(c2c(F)cccc2F)CC1 [intermediate (Ia-2), N-[1-(2,6-Difluorophenyl)-4,5-dihydro-1H-pyrazol-3-yl]acetamide]
logP [6]: 1.46

CC(=O)Nc1ccn(-c2c(F)cccc2F)n1 [intermediate (Ia-3), N-[1-(2,6-Difluorophenyl)-1H-pyrazol-3-yl]acetamide]
logP [6]: 1.33

Nc1ccn(-c2c(F)cccc2F)n1 [intermediate (Ia-4), 1-(2,6-Difluorophenyl)-1H-pyrazole-3-amine]
logP [6]: 1.13

Nc1ccn(-c2ncc(F)cc2F)n1 [intermediate (Ib-1), 1-(3,5-Difluoropyridin-2-yl)-1H-pyrazole-3-amine]
logP [6]: 0.81

Nc1cnn(-c2c(F)cccc2F)n1 [intermediate (Ic-8), 2-(2,6-Difluorophenyl)-2H-1,2,3-triazole-4-amine]
logP [6]: 1.16

Abamectin
Efficacy in % after 14d ([2]; 0.02 ppm): 0%
Efficacy in % after 14d ([2]; 0.08 ppm): 0%

Emamectin-benzoate
Efficacy in % after 15 d (mortality) ([5]; drench, bean plants, 2 ppm, after 15 d, single compound): 10%
